# Data from patent US20230212638A1 (priority 2020, published 2023).
# Assays:
# Type in all cases: cell-based
# [1] = tested on: NBRC12993 (Staphylococcus epidermidis control strain); test: Drug sensitivity of Staphylococcus epidermidis NBRC12993 by resonance frequency shift on GHz array sensor; conditions: PIPC 10.0 μg/mL
# Source text: By using NBRC12993 being a control strain of Staphylococcus epidermidis, the inventors conducted verification experiments of growth and drug sensitivity of Staphylococcus epidermidis by the test method above.
# In this experiment, piperacillin (penicillin) being a time-dependent drug was used. That is, this drug exerts an inhibitory action on growth by retaining the effective drug concentration for a certain period of time. A control sample of NBRC12993 was mixed with piperacillin (PIPC) to prepare a sample for drug sensitivity evaluation at a […] concentration of 10.0 μg/mL (PIPC 10.0 μg/mL). Further, in order to verify the frequency shift of a killed bacterium, a sample was prepared by subjecting 200 μL of a control sample to heat treatment at 98° C. for 30 minutes.
# The samples thus prepared were introduced into different containers 60, respectively, and the frequency shift was measured for each sample. In this case, capping solvent 300 was not added into each container 60. The temperatures of an incubator and a Peltier element during the measurement were set in a similar manner to Example 1 above. In analysis processing, frequency shifts of all the 1488 elements on array sensor 10 were measured every 10 seconds, the average value of the measured frequency shifts was calculated every 5 minutes, and extracted as the frequency shift at each timing of the measurement. In addition to this, in Example 3, a region where the growth of Staphylococcus epidermidis was observed was designated on the display image, and the average value of the frequency shifts in this growth region was calculated every 5 minutes. […]
# Further, FIG. 12(b) is a display image showing a frequency shift of each element by color when a control sample to which PIPC was not added was measured at the time point after the lapse of 240 minutes, and FIG. 12(c) is a display image showing a frequency shift of each element by color when a sample for drug sensitivity evaluation to which PIPC was added (PIPC 10.0 μg/mL) was measured at the time point after the lapse of 240 minutes. […]
# [2] = tested on: BCG (Mycobacterium bovis); conditions: SM sample: 196 μL control sample + 4 μL SM at 25 mg/mL; 20 elements; 12 hours; 37° C.; FIG. 10(b)
# [3] = tested on: NBRC3301 (Escherichia coli control strain); test: Drug sensitivity of Escherichia coli NBRC3301 by resonance frequency shift on GHz array sensor
# Procedure: By using NBRC3301 as a control strain of Escherichia coli, the inventors conducted verification experiments of growth and drug sensitivity of Escherichia coli by the test method above.
# In this experiment, streptomycin (aminoglycoside) being a concentration-dependent drug was used. 196 μL of a control sample of NBRC3301 was mixed with 4 μL of SM at a concentration of 25 mg/mL to prepare a sample for drug sensitivity evaluation at a SM concentration of 500 μg/mL (SM_500 μg/mL). Further, the amount of the SM to be added to the control sample was adjusted to prepare a sample for drug sensitivity evaluation at a SM concentration of 250 μg/mL (SM_250 μg/mL) and a sample for drug sensitivity evaluation at a SM concentration of 125 μg/mL (SM_125 μg/mL). Furthermore, in order to verify the frequency shift of a killed bacterium, a sample was prepared by subjecting 200 μL of a control sample to heat treatment at 98° C. for 30 minutes. […]
# The samples thus prepared were introduced into different containers 60, respectively, and the frequency shift was measured for each sample. […] In analysis processing, frequency shifts of all the 1488 elements on array sensor 10 were measured every 10 seconds, the average value of the measured frequency shifts was calculated every 5 minutes, and extracted as the frequency shift at each timing of the measurement. […]
Compound,"increase in the frequency shift with the lapse of time ([1]; 240 minutes, no capping solvent, compared with heat-treated killed bacteria, FIG. 12(a))","time from start of measurement until which the frequency shift increased, decreasing trend thereafter (time-dependent action) ([1]; FIG. 12(a))","frequency shift of each element in display image ([1]; after the lapse of 240 minutes, FIG. 12(c))",growth of BCG reflected on the frequency shift of each element [2],"frequency shift of each element in display image ([3]; SM 500 μg/mL, after the lapse of 60 minutes, FIG. 11(c))","increase in the frequency shift with the lapse of time, compared with control sample ([3]; SM 500, 250 and 125 μg/mL, average of all 1488 elements, 60 minutes, no capping solvent, suppression greater at higher concentration, FIG. 11(a))"
"CCN1CCN(C(=O)N[C@@H](C(=O)N[C@@H]2C(=O)N3[C@@H]2SC(C)(C)[C@@H]3C(=O)O)c2ccccc2)C(=O)C1=O [PIPC, piperacillin]",the increase in the frequency shift was suppressed more than that in the case where heat treatment was performed,around 120 minutes,the frequency shifts of all the elements were uniformly suppressed low,,,
"[H]/N=C(/N)N[C@H]1[C@H](O)[C@@H](O)[C@H](O[C@@H]2O[C@@H](C)[C@](O)(C=O)[C@H]2O[C@@H]2O[C@@H](CO)[C@H](O)[C@@H](O)[C@@H]2NC)[C@@H](N/C(N)=N\[H])[C@@H]1O [SM, streptomycin]",,,,growth of BCG was suppressed,the frequency shifts of all the elements were uniformly suppressed low,the increase in the frequency shift was suppressed
